The values below come from US11976058B2, “Aromatic derivatives, preparation methods, and medical uses thereof” (Bioardis LLC, priority 2019, dated 2024).

In experiment [1] the test system is MAPK phosphorylation in Hep3B cells stimulated with FGF19. The experiment in a line: FGFR4 pMAPK AlphaLISA SureFire Ultra assay. Type of experiment: cell-based. As to conditions: serum-starved, compound 1 hour, FGF19 100 ng/ml for 4 hours, read-out: Potency (IC50), FGFR4 pMAPK AlphaLISA. From the text:
(§1) Cell line: Hepatocellular carcinoma cell line Hep3B (ATCC, Cat #HB-8064).
In normal liver, circulating FGF19 drives liver cell proliferation and regulates bile acid production. However aberrant expression of FGF19 in the liver drives HCC tumorigenesis, upregulates MAPK phosphorylation in FGF19-amplified malignant liver cells. AlphaScreen SureFire technology allows the detection of phosphorylated proteins in cellular lysates in a highly sensitive, quantitative assay. In these assays, sandwich antibody complexes, which are only formed in the presence of analyte, are captured by AlphaScreen Donor and Acceptor beads, bringing them into close proximity. The excitation of the Donor bead provokes the release of singlet oxygen molecules that triggers a cascade of energy transfer in the Acceptor beads, resulting in the emission of light at 520-620 nm.
Hep3B cells were plated at a density of 1×10^4/ml cells in a 96-well plate (Corning #3599), with 100 uL per well of MEM Medium (Gibco Cat #11095-080) supplemented with 10% fetal bovine serum; 1% Penicillin-Streptomycin, and cultured overnight at 37° C., 5% CO2. Starve Hep3B cells in serum-free medium (SFM) supplemented with 0.2% BSA and incubate the cells again overnight at 37° C., 5% CO2. Various concentrations of the test compound (prepared in 2x SFM) were added to the wells of the cell plate and then incubated for 1 hour at 37° C., 5% CO2. 50 μL of FGF19 in SFM was added to each well of the cell plate with a final FGF19 concentration of 100 ng/ml, and cells treated with FGF19 were stimulated for 4 hours at 37° C., 5% CO2. 5 μL of freshly prepared Donor Mix and Acceptor Mix were sequentially added to the cell plate, each followed with 1 hour of incubation at 25° C., 5% CO2. Read the cell plate on an Alpha Technology-compatible plate reader at 570 nm AlphaScreen, using standard AlphaLISA settings. The percent (%) inhibition=((ZPE−Alpha-Signal)/(ZPE−HPE))*100% where the meanings of HPE and ZPE are as provided below.
HPE: Hundred Percent Effect, negative control well without FGF19 nor compound. Final concentration of DMSO is 0.1%.
ZPE: Zero Percent Effect, positive control well without compound. Final concentration of FGF19 is 100 ng/mL, DMSO is 0.1%.
The concentrations and percent inhibition values for a test compound were plotted and the concentration of the compound required to achieve 50% inhibition (IC50) was determined with a four-parameter logistic dose response equation. Dose-response curves were generated using Prism (GraphPad Software, La Jolla, CA, US) to calculate IC50 values for each compound tested.
Background: In Alpha technology, singlet oxygen from a donor bead excites a nearby acceptor bead.

The next experiment relates to Hep3B cells. Kind of experiment: Cell-based FGFR4 proliferation assay (CellTiter-Glo). As to conditions: incubated with test compound for 3 days, CellTiter-Glo luminescence, read-out: Potency (IC50), Hep3B cell proliferation. Here is the method: Hepatocellular carcinoma cell line Hep3B (ATCC, Cat #HB-8064) were cultured at 37° C., 5% CO2 in ATCC-formulated Eagle's Minimum Essential Medium supplemented with 10% fetal bovine serum; 1% Penicillin-Streptomycin.
as §1
In this assay, Hep3B cells are seeded in 384-well microplates, and after exposure to experimental compounds for […], CellTiter-Glo® Luminescent Cell Viability Assay kit (Promega, Cat #G7572) are used to determine the number of viable cells in the culture based on quantitation of the ATP present, which signals the presence of metabolically active cells. Luminescent signal is proportional to the amount of ATP present. The amount of ATP is directly proportional to the number of cells present in the culture, allowing drug-induced effects on cell proliferation to be measured.
Hep3B cells were plated at a density of 4×10^4/ml cells in a 384-well black/clear microplate with 20 μL per well of MEM Medium (Gibco Cat. #11095-080) supplemented with 10% fetal bovine serum; 1% Penicillin-Streptomycin, and cultured overnight at 37° C., 5% CO2. Various concentrations of the test compound (dissolved in 100% DMSO) were added to the wells of the cell plate. The cells were incubated with the test compound for 3 days at 37° C., 5% CO2. 5 μL of CellTiter-Glo® Reagent was added to each well of the cell plate. The cell plate was incubated for 5 min at 25° C. on a plate shaker (IKA MTS 2/4) at 300 rpm. Luminescence signals were read on a TECAN Spark 10M instrument (TECAN). […] The concentrations and percent inhibition values for a test compound were plotted and the concentration of the compound required to achieve 50% inhibition (IC50) is determined with a four-parameter logistic dose response equation. Dose-response curves were generated using Prism (GraphPad Software, La Jolla, CA, US) to calculate IC50 values for each compound tested.

Another experiment deals with T1, human FGFR4 (Homo sapiens, UniProt P22455).
T1 construct: human FGFR4 cytoplasmic domain (460-802); GST (N); purchased Carna Biosciences 08-136
Kind of experiment: FGFR4 enzymatic assay (HTRF KinEASE-TK). To be noted: wild-type human FGFR4 cytoplasmic domain (460-802), GST-tag; 60 min preincubation at 25° C.; ATP 200 μM; read-out: Potency (IC50), FGFR4 enzymatic assay. It counts as biochemical. How it is done: The ability of compounds to inhibit human FGFR4 tyrosine kinase activities was determined using a commercially available HTRF® KinEASE™-TK kit (CISBIO, Cat #62TK0PEC) according to the manufacturer's protocol. Wild-type human FGFR4 cytoplasmic domain (460-802) with N-terminal GST-tag was purchased from Carna Biosciences (Carna, Cat #08-136) and used in the kinase enzymatic assay. This assay, run in a 384-well plate format, is a generic method for measuring tyrosine kinase activities using one substrate and a universal detection system. It involves two steps: (1) Enzymatic step: the biotin labeled TK Substrate is incubated with the kinase and then ATP is added to start the enzymatic reaction; during this step, FGFR4 will phosphorylate the TK Substrate-biotin. (2) Detection step: The TK-Antibody labeled with Eu^3+-Cryptate can recognize the phosphorylated TK Substrate-biotin. When the streptavidin-XL665 conjugate binds the biotin, a FRET signal will be detected. Briefly, human FGFR4 (0.25 μg/ml) in the enzymatic buffer solutions (250 mM HEPES, pH7.0, 0.1% NaN3, 0.05% BSA, 0.5 mM Orthovanadate) were mixed with various concentrations of the test compound (dissolved in 100% DMSO). These solutions were incubated for 60 min at 25° C., and subsequently a mixture of substrate peptide and ATP was added with the final peptide and ATP concentrations at 0.3 μM and 200 μM respectively. The final reaction mixture of enzyme-substrate-ATP-compound was incubated for 40 min at 37° C. Meanwhile the detection mixture containing the TK-antibody and Streptavidin-XL665 diluted in the detection buffer (50 mM HEPES, pH7.0, with additives) was prepared, and added to the reaction mixture at final concentrations of 25 nM and 18.5 nM respectively. After incubation for 60 min at 25° C., the FRET signal of the final solution was measured at 665 nm and 612 nm emissions on a TECAN Spark 10M instrument (TECAN). The percent (%) inhibition at each concentration of a compound was calculated relative to the FRET signal in the Max and Min control wells contained within each assay plate. The Max control wells contained enzyme and substrate as 0% inhibition, and the Min control wells only contained substrate without enzyme as 100% inhibition. The concentrations and percent inhibition values for a test compound are plotted and the concentration of the compound required to achieve 50% inhibition (IC50) was determined with a four-parameter logistic dose response equation. Dose-response curves were generated using Prism (GraphPad Software, La Jolla, CA, US) to calculate IC50 values for each compound tested.
A general note: TR-FRET usually uses a lanthanide donor and a delayed reading to cut background.

pIC50: −log10 of the molar value. Like-named read-outs stand apart in the source and are kept apart here.

T1 sequence (P22455 460-802): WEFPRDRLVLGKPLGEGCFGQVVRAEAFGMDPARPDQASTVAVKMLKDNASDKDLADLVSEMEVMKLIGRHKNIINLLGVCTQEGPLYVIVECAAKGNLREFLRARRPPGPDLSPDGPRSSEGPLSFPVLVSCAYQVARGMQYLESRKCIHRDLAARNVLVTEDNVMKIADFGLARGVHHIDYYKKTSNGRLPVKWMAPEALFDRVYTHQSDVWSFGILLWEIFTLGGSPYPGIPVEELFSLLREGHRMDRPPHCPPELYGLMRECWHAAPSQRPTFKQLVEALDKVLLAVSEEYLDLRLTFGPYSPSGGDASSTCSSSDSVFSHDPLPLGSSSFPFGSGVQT

As to `C=CC(=O)Nc1cnn(C)c1-c1n[nH]c2c1CCC1(C2)OCc2c(OC)cc(OC)c(F)c21` (centres unmarked) [Compound S9, N-(5-(7′-fluoro-4′,6′-dimethoxy-1,4,5,7-tetrahydro-3′H-spiro[indazole-6,1′-isobenzofuran]-3-yl)-1-methyl-1H-pyrazol-4-yl)acrylamide], the pIC50 in experiment [1] (Homo sapiens, Hep3B) was < 7.00; in the experiment on Hep3B cells (Homo sapiens, Hep3B, 72 h) it was < 7.00; on human FGFR4 it was 7.00 to 8.00.
Consider `C=CC(=O)Nc1cnn(C)c1-c1n[nH]c2c1CCC(c1c(F)c(OC)cc(OC)c1F)C2` (single isomer, unassigned) [Compound S1-P2, N-(5-(6-(2,6-difluoro-3,5-dimethoxyphenyl)-4,5,6,7-tetrahydro-1H-indazol-3-yl)-1-methyl-1H-pyrazol-4-yl)acrylamide], for which the figures for the pIC50 (in experiment [1]; with Hep3B cells; at human FGFR4) were > 8.00, 7.00 to 8.00 and > 8.00, respectively.
For `C=CC(=O)Nc1cnn(C(C)C)c1-c1n[nH]c2c1CCC(c1c(F)c(OC)cc(OC)c1F)C2` (single isomer, unassigned) [Compound S17-P2, N-(5-(6-(2,6-difluoro-3,5-dimethoxyphenyl)-4,5,6,7-tetrahydro-1H-indazol-3-yl)-1-isopropyl-1H-pyrazol-4-yl)acrylamide], the pIC50 in experiment [1] is > 8.00; in the experiment on Hep3B cells, 7.00 to 8.00; on human FGFR4, 7.00 to 8.00.
Consider `C=CC(=O)Nc1cnn(C(C)C)c1-c1n[nH]c2c1CCC(c1c(F)c(OC)cc(OC)c1F)C2` (single isomer, unassigned) [Compound S17-P1, N-(5-(6-(2,6-difluoro-3,5-dimethoxyphenyl)-4,5,6,7-tetrahydro-1H-indazol-3-yl)-1-isopropyl-1H-pyrazol-4-yl)acrylamide], for which the pIC50 was 7.00 to 8.00 in experiment [1] (Homo sapiens, Hep3B); < 7.00 in the experiment on Hep3B cells; 7.00 to 8.00 on human FGFR4.
For the compound `C=CC(=O)Nc1cn[nH]c1-c1n[nH]c2c1CCCC(c1cc(OC)cc(OC)c1F)C2` (single isomer, unassigned) [Compound S11-P3, N-(5-(7-(2-fluoro-3,5-dimethoxyphenyl)-1,4,5,6,7,8-hexahydrocyclohepta[c]pyrazol-3-yl)-1H-pyrazol-4-yl)acrylamide], the pIC50 in experiment [1] (Homo sapiens, Hep3B) is > 8.00; with Hep3B cells (Homo sapiens, Hep3B, 72 h), 7.00 to 8.00; on human FGFR4, > 8.00.
Regarding `C=CC(=O)Nc1cn(C)nc1-c1n[nH]c2c1CCC[C@H](c1c(F)c(OC)cc(OC)c1F)C2` (single isomer, unassigned) [Compound S12-P1], the pIC50 was > 8.00 in experiment [1] (Homo sapiens, Hep3B); 7.00 to 8.00 in the experiment on Hep3B cells (Homo sapiens, Hep3B, 72 h); > 8.00 on human FGFR4.
For `C=CC(=O)Nc1ncn(C)c1-c1n[nH]c2c1CCC(c1c(F)c(OC)cc(OC)c1F)C2` (single isomer, unassigned) [Compound S3-P2, N-(5-(6-(2,6-Difluoro-3,5-dimethoxyphenyl)-4,5,6,7-tetrahydro-1H-indazol-3-yl)-1-methyl-1H-imidazol-4-yl) Acrylamide], the pIC50 in experiment [1] (Homo sapiens, Hep3B) is < 7.00; with Hep3B cells, < 7.00; at human FGFR4, 7.00 to 8.00.
On to `[2H]C([2H])([2H])n1ncc(NC(=O)C=C)c1-c1n[nH]c2c1CCC(c1c(F)c(OC)cc(OC)c1F)C2` (single isomer, unassigned) [Compound S16-P1, N-(5-(6-(2,6-difluoro-3,5-dimethoxyphenyl)-4,5,6,7-tetrahydro-1H-indazol-3-yl)-1-(methyl-d3)-1H-pyrazol-4-yl)acrylamide], for which the pIC50 in experiment [1] (Homo sapiens, Hep3B) was > 8.00; with Hep3B cells (Homo sapiens, Hep3B, 72 h) it was 7.00 to 8.00; on human FGFR4, > 8.00.
Take `C=CC(=O)Nc1cnn(C)c1-c1n[nH]c2c1CCC(c1c(F)c(OC)cc(OC)c1F)=C2` [Compound S5-P1, N-(5-(6-(2,6-difluoro-3,5-dimethoxyphenyl)-4,5-dihydro-1H-indazol-3-yl)-1-methyl-1H-pyrazol-4-yl) acrylamide]: the pIC50 in experiment [1] (Homo sapiens, Hep3B) is > 8.00; in the experiment with Hep3B cells (Homo sapiens, Hep3B, 72 h) it was 7.00 to 8.00; at human FGFR4 it was 7.00 to 8.00.
On to `C=CC(=O)Nc1cnn(C)c1-c1n[nH]c2c1CCC(c1cc(OC)cc(OC)c1F)=C2` [Compound S5-P2, N-(5-(6-(2-fluoro-3,5-dimethoxyphenyl)-4,5-dihydro-1H-indazol-3-yl)-1-methyl-1H-pyrazol-4-yl)acrylamide], for which the pIC50 in experiment [1] (Homo sapiens, Hep3B) was 7.00 to 8.00; in the experiment on Hep3B cells (Homo sapiens, Hep3B, 72 h) it was < 7.00; on human FGFR4, 7.00 to 8.00.
For `C=CC(=O)Nc1cnn(C)c1-c1n[nH]c2c1COC(c1c(F)c(OC)cc(OC)c1F)C2` (single isomer, unassigned) [Compound S6-P1, N-(5-(6-(2,6-difluoro-3,5-dimethoxyphenyl)-1,4,6,7-tetrahydropyrano[4,3-c]pyrazol-3-yl)-1-methyl-1H-pyrazol-4-yl) acrylamide], the pIC50 with Hep3B cells (Homo sapiens, Hep3B, 72 h) was < 7.00; at human FGFR4, < 7.00.
